How the values were obtained:
Assay in all cases: Test E greenhouse herbicide test, pre- and postemergence
Format in all cases: in vivo
[1] = system: lambsquarters (Chenopodium album); details: Preemergence
Description: (§1) Seeds of plant species selected from corn (Zea mays), soybean (Glycine max), velvetleaf (Abutilon theophrasti), lambsquarters (Chenopodium album), wild poinsettia (Euphorbia heterophylla), pigweed, palmer (palmer pigweed, Amaranthus palmeri), waterhemp (common waterhemp, Amaranthus rudis), surinam grass (Brachiaria decumbens), crabgrass, large (large crabgrass, Digitaria sanguinalis), crabgrass, Brazilian (Brazilian crabgrass, Digitaria horizontalis), panicum, fall (fall panicum, Panicum dichotomiflorum), foxtail, giant (giant foxtail, Setaria faberii), foxtail, green (green foxtail, Setaria viridis), goosegrass (Eleusine indica), johnsongrass (Sorghum halepense), ragweed (common ragweed, Ambrosia elatior), barnyardgrass (Echinochloa crus-galli), sandbur (southem sandbur, Cenchrus echinatus), arrowleaf sida (Sida rhombifolia), Italian ryegrass (Lolium multiflorum), dayflower (Virginia (VA) dayflower, Commelina virginica), field bindweed (Convolvulus arvensis), momingglory (Ipomoea coccinea), nightshade (eastern black nightshade, Solanum ptycanthum), kochia (Kochia scoparia), nutsedge, yellow (yellow nutsedge, Cyperus esculentus), horseweed (Conyza canadensis), and beggarticks (hairy beggarticks, Bidens pilosa), were planted into a silt loam soil and treated preemergence with test chemicals formulated in a non-phytotoxic solvent mixture which included a surfactant.
(§2) At the same time, plants from these crop and weed species and also waterhemp_RES1, (ALS & Triazine resistant common waterhemp, Amaranthus rudis), and waterhemp_RES2, (ALS & HPPD resistant common waterhemp, Amaranthus rudis) were planted in pots containing Redi-Earth® planting medium (Scotts Company, 14111 Scottslawn Road, Marysville, Ohio 43041) comprising spaghnum peat moss, vermiculite, wetting agent and starter nutrients were treated with postemergence applications of test chemicals formulated in the same manner. Plants ranged in height from 2 to 18 cm for postemergence treatments (1- to 4-leaf stage). Treated plants and controls were maintained in a greenhouse for 14 to 21 d, after which time all species were compared to controls and visually evaluated. Plant response ratings, summarized in Table E, are based on a scale of 0 to 100 where 0 is no effect and 100 is complete control. A dash (-) response means no test result.

[2] = system: beggarticks (hairy beggarticks, Bidens pilosa)
Description: as §1, §2

[3] = system: nutsedge, yellow (yellow nutsedge, Cyperus esculentus); details: Preemergence
Description: as §1, §2

[4] = system: dayflower (Virginia (VA) dayflower, Commelina virginica)
Description: as §1, §2

[5] = system: foxtail, giant (giant foxtail, Setaria faberii); details: Preemergence
Description: as §1, §2

[6] = system: ragweed (common ragweed, Ambrosia elatior); details: Preemergence
Description: as §1, §2

[7] = system: velvetleaf (Abutilon theophrasti); details: Preemergence
Description: as §1, §2

[8] = system: crabgrass, Brazilian (Brazilian crabgrass, Digitaria horizontalis)
Description: as §1, §2

[9] = system: barnyardgrass (Echinochloa crus-galli)
Description: as §1, §2

[10] = system: sandbur (southem sandbur, Cenchrus echinatus)
Description: as §1, §2

[11] = system: crabgrass, large (large crabgrass, Digitaria sanguinalis); details: Preemergence
Description: as §1, §2

[12] = system: johnsongrass (Sorghum halepense); details: Preemergence
Description: as §1, §2

[13] = system: waterhemp (common waterhemp, Amaranthus rudis)
Description: as §1, §2

[14] = system: foxtail, green (green foxtail, Setaria viridis); details: Preemergence
Description: as §1, §2

[15] = system: Italian ryegrass (Lolium multiflorum)
Description: as §1, §2

[16] = system: kochia (Kochia scoparia); details: Preemergence
Description: as §1, §2

[17] = system: panicum, fall (fall panicum, Panicum dichotomiflorum)
Description: as §1, §2

[18] = 62 g ai/ha, scale 0 to 100 (0 no effect, 100 complete control)
[19] = 16 g ai/ha, scale 0 to 100, 0 no effect, 100 complete control
[20] = 31 g ai/ha, scale 0 to 100, 0 no effect, 100 complete control
[21] = 125 g ai/ha, visual, scale 0 no effect to 100 complete control
[22] = 250 g ai/ha, visual, scale 0 no effect to 100 complete control
[23] = 62 g ai/ha, Postemergence, scale 0 to 100 (0 no effect, 100 complete control)
[24] = 62 g ai/ha, Preemergence, scale 0 to 100 (0 no effect, 100 complete control)
[25] = 125 g ai/ha, Postemergence, scale 0 to 100 (0 no effect, 100 complete control)
[26] = 250 g ai/ha, Postemergence, scale 0 to 100 (0 no effect, 100 complete control)
[27] = Postemergence, 16 g ai/ha, visual, scale 0 no effect to 100 complete control
[28] = Postemergence, 31 g ai/ha, visual, scale 0 no effect to 100 complete control
[29] = Preemergence, 16 g ai/ha, scale 0 to 100, 0 no effect, 100 complete control
[30] = Preemergence, 31 g ai/ha, scale 0 to 100, 0 no effect, 100 complete control
[31] = Preemergence, 125 g ai/ha, visual, scale 0 no effect to 100 complete control
[32] = Preemergence, 250 g ai/ha, visual, scale 0 no effect to 100 complete control
[33] = 125 g ai/ha, scale 0 to 100 (0 no effect, 100 complete control)
[34] = 125 g ai/ha, Preemergence, scale 0 to 100 (0 no effect, 100 complete control)

Cc1ccc2sc(C)c(-c3c(O)c(C)nn(C)c3=O)c2c1 [Compound 1, 4-(2,5-dimethylbenzo[b]thien-3-yl)-5-hydroxy-2,6-dimethyl-3(2H)-pyridazinone]
Plant response rating, Lambsquarters [1, 18]: 98
Plant response rating, Lambsquarters [1, 19]: 65
Plant response rating, Lambsquarters [1, 20]: 65
Plant response rating, Lambsquarters [1, 21]: 100
Plant response rating, Lambsquarters [1, 22]: 100
Plant response rating, Beggarticks [2, 23]: 98
Plant response rating, Beggarticks [2, 24]: 100
Plant response rating, Beggarticks [2, 25]: 100
Plant response rating, Beggarticks [2, 26]: 100
Plant response rating, Beggarticks [2, 27]: 70
Plant response rating, Beggarticks [2, 28]: 85
Plant response rating, Beggarticks [2, 29]: 100
Plant response rating, Beggarticks [2, 30]: 100
Plant response rating, Beggarticks [2, 31]: 100
Plant response rating, Beggarticks [2, 32]: 100
Plant response rating, Nutsedge, Yellow [3, 18]: 15
Plant response rating, Nutsedge, Yellow [3, 33]: 50
Plant response rating, Nutsedge, Yellow [3, 19]: 0
Plant response rating, Nutsedge, Yellow [3, 20]: 10
Plant response rating, Nutsedge, Yellow [3, 22]: 70
Plant response rating, Dayflower, VA [4, 23]: 0
Plant response rating, Dayflower, VA [4, 24]: 20
Plant response rating, Dayflower, VA [4, 25]: 30
Plant response rating, Dayflower, VA [4, 26]: 50
Plant response rating, Dayflower, VA [4, 27]: 0
Plant response rating, Dayflower, VA [4, 28]: 0
Plant response rating, Dayflower, VA [4, 29]: 0
Plant response rating, Dayflower, VA [4, 30]: 0
Plant response rating, Dayflower, VA [4, 31]: 15
Plant response rating, Dayflower, VA [4, 32]: 25
Plant response rating, Foxtail, Giant [5, 18]: 35
Plant response rating, Foxtail, Giant [5, 19]: 0
Plant response rating, Foxtail, Giant [5, 20]: 50
Plant response rating, Foxtail, Giant [5, 21]: 95
Plant response rating, Foxtail, Giant [5, 22]: 98
Plant response rating, Ragweed [6, 18]: 75
Plant response rating, Ragweed [6, 33]: 100
Plant response rating, Ragweed [6, 19]: 35
Plant response rating, Ragweed [6, 20]: 70
Plant response rating, Ragweed [6, 22]: 100
Plant response rating, Velvetleaf [7, 18]: 75
Plant response rating, Velvetleaf [7, 33]: 90
Plant response rating, Velvetleaf [7, 19]: 35
Plant response rating, Velvetleaf [7, 20]: 75
Plant response rating, Velvetleaf [7, 22]: 98
Plant response rating, Crabgrass, Brazil [8, 23]: 15
Plant response rating, Crabgrass, Brazil [8, 24]: 80
Plant response rating, Crabgrass, Brazil [8, 25]: 20
Plant response rating, Crabgrass, Brazil [8, 26]: 35
Plant response rating, Crabgrass, Brazil [8, 27]: 0
Plant response rating, Crabgrass, Brazil [8, 28]: 15
Plant response rating, Crabgrass, Brazil [8, 29]: 0
Plant response rating, Crabgrass, Brazil [8, 30]: 10
Plant response rating, Crabgrass, Brazil [8, 31]: 100
Plant response rating, Crabgrass, Brazil [8, 32]: 100
Plant response rating, Barnyardgrass [9, 23]: 20
Plant response rating, Barnyardgrass [9, 24]: 0
Plant response rating, Barnyardgrass [9, 25]: 25
Plant response rating, Barnyardgrass [9, 26]: 35
Plant response rating, Barnyardgrass [9, 27]: 10
Plant response rating, Barnyardgrass [9, 28]: 15
Plant response rating, Barnyardgrass [9, 29]: 0
Plant response rating, Barnyardgrass [9, 30]: 0
Plant response rating, Barnyardgrass [9, 31]: 0
Plant response rating, Barnyardgrass [9, 32]: 20
Plant response rating, Sandbur [10, 23]: 30
Plant response rating, Sandbur [10, 24]: 20
Plant response rating, Sandbur [10, 25]: 30
Plant response rating, Sandbur [10, 34]: 70
Plant response rating, Sandbur [10, 26]: 30
Plant response rating, Sandbur [10, 27]: 0
Plant response rating, Sandbur [10, 28]: 10
Plant response rating, Sandbur [10, 29]: 0
Plant response rating, Sandbur [10, 30]: 10
Plant response rating, Sandbur [10, 32]: 70
Plant response rating, Crabgrass, Large [11, 18]: 20
Plant response rating, Crabgrass, Large [11, 19]: 0
Plant response rating, Crabgrass, Large [11, 20]: 0
Plant response rating, Crabgrass, Large [11, 21]: 35
Plant response rating, Crabgrass, Large [11, 22]: 65
Plant response rating, Johnsongrass [12, 18]: 0
Plant response rating, Johnsongrass [12, 19]: 0
Plant response rating, Johnsongrass [12, 20]: 0
Plant response rating, Johnsongrass [12, 21]: 30
Plant response rating, Johnsongrass [12, 22]: 40
Plant response rating, Waterhemp [13, 23]: 95
Plant response rating, Waterhemp [13, 24]: 100
Plant response rating, Waterhemp [13, 25]: 98
Plant response rating, Waterhemp [13, 34]: 100
Plant response rating, Waterhemp [13, 26]: 100
Plant response rating, Waterhemp [13, 27]: 70
Plant response rating, Waterhemp [13, 28]: 85
Plant response rating, Waterhemp [13, 29]: 35
Plant response rating, Waterhemp [13, 30]: 90
Plant response rating, Waterhemp [13, 32]: 100
Plant response rating, Foxtail, Green [14, 18]: 70
Plant response rating, Foxtail, Green [14, 19]: 0
Plant response rating, Foxtail, Green [14, 20]: 15
Plant response rating, Foxtail, Green [14, 21]: 90
Plant response rating, Foxtail, Green [14, 22]: 90
Plant response rating, Ryegrass, Italian [15, 23]: 50
Plant response rating, Ryegrass, Italian [15, 24]: 100
Plant response rating, Ryegrass, Italian [15, 25]: 65
Plant response rating, Ryegrass, Italian [15, 34]: 100
Plant response rating, Ryegrass, Italian [15, 26]: 90
Plant response rating, Ryegrass, Italian [15, 27]: 20
Plant response rating, Ryegrass, Italian [15, 28]: 35
Plant response rating, Ryegrass, Italian [15, 29]: 70
Plant response rating, Ryegrass, Italian [15, 30]: 95
Plant response rating, Ryegrass, Italian [15, 32]: 100
Plant response rating, Kochia [16, 18]: 5
Plant response rating, Kochia [16, 19]: 0
Plant response rating, Kochia [16, 20]: 0
Plant response rating, Kochia [16, 21]: 35
Plant response rating, Kochia [16, 22]: 85
Plant response rating, Panicum, Fall [17, 23]: 75
Plant response rating, Panicum, Fall [17, 24]: 90
Plant response rating, Panicum, Fall [17, 25]: 80
Plant response rating, Panicum, Fall [17, 34]: 95
Plant response rating, Panicum, Fall [17, 26]: 85
Plant response rating, Panicum, Fall [17, 27]: 70
Plant response rating, Panicum, Fall [17, 28]: 75
Plant response rating, Panicum, Fall [17, 29]: 65
Plant response rating, Panicum, Fall [17, 30]: 75
Plant response rating, Panicum, Fall [17, 32]: 100

From patent publication US10597388B2, “Pyridazinone herbicides” (FMC CORPORATION, priority 2014, dated 2020)
